# Assay results taken from patent publication US9493432B2, “Cyclopentylbenzamide derivatives and their use for the treatment of psychotic and cognitive disorders” (Takeda Pharmaceutical Company Limited, priority 2013, dated 2016).
# Legend:
# human orexin receptor 1 = human orexin receptor 1 (Homo sapiens (Human), UniProt O43613); test: Orexin antagonist activity, intracellular calcium FLIPR assay (orexin receptor 1); assay type: cell-based; conditions: RBL-2H3 cells stably expressing human orexin receptor 1; Ca2+ dye FLIPR; compound 15 minutes before orexin-A at approximately 80% maximal response; read-out: Human Orexin1R IC50
# Chain of human orexin receptor 1 (O43613 whole entry): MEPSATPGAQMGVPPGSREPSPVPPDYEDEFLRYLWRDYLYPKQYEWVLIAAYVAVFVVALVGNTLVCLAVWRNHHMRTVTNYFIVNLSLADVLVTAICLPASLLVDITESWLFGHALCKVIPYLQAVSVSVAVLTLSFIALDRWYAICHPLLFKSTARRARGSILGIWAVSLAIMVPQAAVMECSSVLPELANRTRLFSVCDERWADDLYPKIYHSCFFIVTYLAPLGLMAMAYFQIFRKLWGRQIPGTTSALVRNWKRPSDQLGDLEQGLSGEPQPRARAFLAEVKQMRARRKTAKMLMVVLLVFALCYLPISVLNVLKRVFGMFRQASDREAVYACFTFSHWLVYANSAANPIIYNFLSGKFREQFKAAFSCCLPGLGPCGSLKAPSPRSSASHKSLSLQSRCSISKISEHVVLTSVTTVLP
# Method in brief: (§1)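 RBL-2H3 cells stably expressing human OX1 or OX2 were loaded with Calcium 5 dye for 1 h at 37 °C. Compounds were added 15 min before orexin-A at a concentration giving ~80% maximal response, and Ca2+ fluorescence was read by FLIPR.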
# human orexin receptor 2 = human orexin receptor 2 (Homo sapiens (Human), UniProt O43614); test: Orexin antagonist activity, intracellular calcium FLIPR assay (orexin receptor 2); assay type: cell-based; conditions: RBL-2H3 cells stably expressing human orexin receptor 2; Ca2+ dye FLIPR; compound 15 minutes before orexin-A at approximately 80% maximal response; read-out: Human Orexin2R IC50
# Chain of human orexin receptor 2 (O43614 whole entry): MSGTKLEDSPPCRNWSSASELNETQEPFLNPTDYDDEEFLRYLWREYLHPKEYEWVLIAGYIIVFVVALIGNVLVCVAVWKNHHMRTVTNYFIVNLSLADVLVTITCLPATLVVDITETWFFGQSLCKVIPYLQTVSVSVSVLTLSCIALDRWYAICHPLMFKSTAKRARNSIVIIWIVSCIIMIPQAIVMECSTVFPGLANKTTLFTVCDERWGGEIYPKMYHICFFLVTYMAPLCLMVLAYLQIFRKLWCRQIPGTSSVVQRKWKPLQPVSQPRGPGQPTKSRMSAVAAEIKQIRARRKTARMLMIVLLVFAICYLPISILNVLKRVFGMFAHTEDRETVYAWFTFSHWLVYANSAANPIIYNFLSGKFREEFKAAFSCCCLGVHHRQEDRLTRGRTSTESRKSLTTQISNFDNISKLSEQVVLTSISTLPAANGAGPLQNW
# Method in brief: as §1
IC50 (human orexin receptor 1),IC50 (human orexin receptor 2),Compound
0.016 µM,> 10 µM,"O=C(N[C@H]1CCC[C@@H]1Nc1nc2ccccc2s1)c1ccccc1-n1nccn1 [Example 90, N-[(1S,2S)-2-[(1,3-Benzothiazol-2-yl)amino]cyclopentyl]-2-(2H-1,2,3-triazol-2-yl)benzamide]"
0.014 µM,8.6 µM,"O=C(N[C@H]1CCC[C@@H]1Nc1nc2cc(F)ccc2s1)c1ccccc1-n1nccn1 [Example 92, N-[(1S,2S)-2-[(5-Fluoro-1,3-benzothiazol-2-yl)amino]cyclopentyl]-2-(2H-1,2,3-triazol-2-yl)benzamide]"
0.014 µM,6.2 µM,"O=C(N[C@H]1CCC[C@@H]1Nc1nc2c(F)cc(F)cc2s1)c1ccccc1-n1nccn1 [Example 93, N-[(1S,2S)-2-[(4,6-Difluoro-1,3-benzothiazol-2-yl)amino]cyclopentyl]-2-(2H-1,2,3-triazol-2-yl)benzamide]"
0.03 µM,> 10 µM,"O=C(N[C@H]1CCC[C@@H]1Nc1nc2c(F)cccc2s1)c1ccccc1-n1nccn1 [Example 94, N-[(1S,2S)-2-[(4-Fluoro-1,3-benzothiazol-2-yl)amino]cyclopentyl]-2-(2H-1,2,3-triazol-2-yl)benzamide]"
0.041 µM,> 10 µM,"O=C(N[C@H]1CCC[C@@H]1Nc1nc2cccnc2s1)c1ccccc1-n1nccn1 [Example 95, N-[(1S,2S)-2-({[1,3]Thiazolo[5,4-b]pyridin-2-yl}amino)cyclopentyl]-2-(2H-1,2,3-triazol-2-yl)benzamide]"
0.48 µM,> 10 µM,"O=C(N[C@H]1CCC[C@@H]1Nc1nc2c(Cl)cncc2s1)c1ccccc1-n1nccn1 [Example 96, N-[(1S,2S)-2-({7-Chloro-[1,3]thiazolo[5,4-c]pyridin-2-yl}amino)cyclopentyl]-2-(2H-1,2,3-triazol-2-yl)benzamide]"
0.31 µM,2.1 µM,"COc1cccc(OC)c1C(=O)NC1CCCC1Cc1ccc2ccccc2n1 (stereo not drawn) [Example 98, 2,6-Dimethoxy-N-[2-(quinolin-2-ylmethyl)cyclopentyl]benzamide]"
0.007 µM,0.06 µM,"CC1(Nc2nc3ccc(F)cc3s2)CCCC1NC(=O)c1ccccc1-n1nccn1 (stereo not drawn) [Example 107, N-{2-[(6-Fluoro-1,3-benzothiazol-2-yl)amino]-2-methylcyclopentyl}-2-(2H-1,2,3-triazol-2-yl)benzamide]"
0.013 µM,0.186 µM,"CC1(Nc2nc3ccc(Cl)cc3s2)CCCC1NC(=O)c1ccccc1-n1nccn1 (stereo not drawn) [Example 108, N-{2-[(6-Chloro-1,3-benzothiazol-2-yl)amino]-2-methylcyclopentyl}-2-(2H-1,2,3-triazol-2-yl)benzamide]"
